Literature values in patent publication US20090131498A1, “Enantioselective Synthesis of Merrilactone and Its Analogs” (priority 2005, published 2009).

Test system: neurite growth
Conditions: described by Fukuyama et al. (ref. 3)

C[C@@]12COC(=O)[C@]1(C)C1O[C@]3(C)[C@@H](O)C[C@]24OC(=O)C[C@]143 (stereo partly shown) [merrilactone A, Merrilactone A]
activity in a neurite growth assay: promising activity
